Patent US20170175081A1, “Methods of Obtaining Islet Cells” (The University Court of the University of Aberdeen, priority 2014, published 2017)

Legend:
[1] = tested on: reprogrammed human exocrine pancreatic cells; experiment: C-peptide ELISA of cell extracts, reprogrammed (siARX) with or without ZnCl2; assay type: cell-based; conditions: ZnCl2 10 μM; p<0.01 relative to siARX
Protocol: FIG. 19. C-peptide ELISA measurements of cell extracts from untreated cells (N/A) or cells reprogrammed (siARX) in the absence or presence of ZnCl2 (10 μM). C-peptide levels were expressed level to protein content and represent […] (n=3). ***p<0.001 relative to NA and **p<0.01 relative to siARX.
(§1) Human exocrine fractions were thawed and plated on tissue culture 9 cm^2 dishes (Greiner, Stonehouse, UK) and cultured for two days in RPMI 1640 (Gibco, Life Technologies) supplemented with 10% foetal bovine serum (FBS), 10 mM HEPES, 1 mM sodium pyruvate (all from Gibco) and 75 μM β-mercaptoethanol (Sigma Aldrich). After 48 h, the cells were incubated for another 72 h in serum free medium (SFM) prepared with RPMI 1640, insulin-transferrin-selenium (Gibco) and 1% bovine serum albumin (Sigma), supplemented with 10 μM SB431542, 2 μM Y27632, 1 μM 5-Aza-2′deoxycytidine and 10 mM sodium butyrate (all from Sigma). On the next day the cells were incubated for 4 h with the adenoviruses encoding pancreatic transcription factors PDX1, MAFA, NGN3 and PAX4. On the following day the medium was changed for SFM supplemented with 1 nM betacellulin (R&D systems, Abingdon, UK), 10 nM exendin-4 and 10 mM nicotinamide (both from Sigma). The medium was changed every two days for another 6 days before harvesting. […]

[2] = tested on: reprogrammed human exocrine pancreatic cells; experiment: RT-qPCR of cells reprogrammed (siARX) with or without zinc; assay type: cell-based; conditions: ZnCl2 10 μM; partly attributed to increased PAX4 mRNA
Protocol: FIG. 18. RT-qPCR analysis of the three main endocrine hormones insulin (INS), glucagon (GCG) and somatostatin (SST) and the transcription factors PDX1, PAX4, MAFA, NEUROD, NGN3 and NKX6.1 in untreated (N/A) or cells reprogrammed (siARX) in the absence or presence of ZnCl2 (10 μM). Expression was normalised to glyceraldehyde 3-phosphate dehydrogenase. Data are representative of triplicate experiments and represented as mean+/−standard error of the mean.
as §1, with “Sigma).” for “Sigma). The medium was changed every two days for another 6 days before harvesting.”

[3] = tested on: islet enriched pancreatic cells; experiment: Ad-KLF4 with and without Rho-kinase inhibitor Y27632, gene expression; assay type: cell-based, human; conditions: Y27632 20 uM; up to 10 days post infection
Protocol: FIG. 11. […] A one-way ANOVA was performed with Dunnett post hoc test comparing treatment groups. […] B: Samples were fixed and permeabilised at day 6 for E-cadherin and cleaved caspase-3.
Total RNA was extracted using TRIzol® and treated with DNaseI (both Life Technologies) followed by cDNA synthesis using 1 μg of RNA per sample. qRT-PCR mixtures were prepared using SensiMix II probe kit (Bioline, London, UK) and TaqMan gene expression assays (Applied Biosystems, Paisley, UK) as per manufacturer's instructions. cDNA was amplified on Roche LightCycler 480® for 50 cycles. Samples were run in triplicate and normalised to glyceraldehyde 3-phosphate dehydrogenase (GAPDH) and/or 60S ribosomal protein L13a (RPL13a). Data was analysed using the 2^−ΔΔCT method (Brodsky et al., 1999). Statistical analysis was performed using GraphPad Prism software and the Student t test or one-way/two-way ANOVA, followed by the Dunnett post hoc test, were used as appropriate.
We next hypothesised that adjusting the cell culture environment to promote survival of newly formed epithelial cells would enhance redifferentiation.

[Cl-].[Cl-].[Zn+2] [ZnCl2]
insulin (C-peptide) protein content [1]: stimulatory effect | insulin gene expression [2]: significant effect

C[C@@H](N)[C@H]1CC[C@H](C(=O)Nc2ccncc2)CC1 [Y27632]
gene expression, Ad-KLF4 with vs without Y27632 [3]: no significant difference
